Legend:
[1] = test system: PBMC; assay: IL-2-induced PBMC proliferation assay ([3H]thymidine); assay type: cell-based, human; details: PBMC from a healthy donor; with IL-2 50 U/mL; compared with IL-2 alone and untreated controls; FIG. 1
Experimental: Isolation of peripheral blood mononuclear cells (PBMC). Lymphocytes and monocytes were purified from blood samples from healthy donors using Ficoll-Paque Plus (Amersham Biosciences, Uppsala, Sweden). The blood sample was diluted with PBS and carefully layered on a Ficoll-sodium diatrizoate solution, after which the two-phase system was centrifuged at 400×g for 30 min. […] The lymphocyte layer was collected using a Pasteur pipette, and the cells washed with HBSS to remove excess Ficoll-Paque Plus, plasma and platelets. The cells were counted and dissolved in RPMI medium containing 10% HuS, 1% PeSt and 1% glutamine.
Proliferation assay. Interleukin (IL)-2 plays a pivotal role in lymphocyte activation and proliferation. For this reason the effect of GnRH analog on IL-2-induced PBMC proliferation was investigated. PBMCs from a healthy donor were plated in round-bottomed 96-well plates at a concentration of 1×10^5 cells/100 μL in the culture medium described above. Just after the onset of culture, the cells were treated with IL-2 (Proleukin, Chiron Corporation, Emeryville, Ca, USA) at a concentration of 50 U/mL and with three different concentrations between 1×10^−9 and 1×10^−5 M of GnRH analog (Leuprolide acetate, Nordic Drugs, Limhamn, Sweden) or culture medium (FIG. 1). […] Radioactivity was measured using a 1205 Betaplate Liquid ScintillCounter (Wallac, Turku, Finland).

[2] = test system: T cells; assay: Stimulation of T cells in whole blood with GnRH analog, activation markers by flow cytometry; assay type: cell-based, human
Experimental: Stimulation of T-cells from HIV-patients with GnRH-analog. Because of the risk of contamination, blood samples from HIV-patients had to be handled and analyzed in a closed automated system. Heparinised blood from three HIV-patients and two healthy individuals was diluted with serum-free culture medium (Aim V from Invitrogen) and stimulated with 50 U/mL IL-2 and four different concentrations of the GnRH analog leuprolide acetate between 10^−1 and 10^−5 M. The blood samples were handled by a dispensation robot (Prep Plus) and incubated, lysed, stabilized and fixed in a TQ-Prep machine. The incubation time was 18 h and the temperature 37° C. After the incubation with Leuprolide acetate and IL-2, the cells were stained with fluorochrome-conjugated mAbs for 10 min, and red blood cells were lysed. The lymphocytes were subsequently analysed by flow cytometry on an Epics XL-MCL (all machines from Beckman Coulter). T-cells were identified by their forward-and side scatter properties, and the surface expression of CD3. The expression of the activation markers CD25, CD69, HLA ABC, and HLA DR on T cells was evaluated.

[3] = whole blood, HIV-infected patients and control subjects, 18 h incubation

CCNC(=O)[C@@H]1CCCN1C(=O)[C@H](CCCNC(=N)N)NC(=O)[C@H](CC(C)C)NC(=O)[C@@H](CC(C)C)NC(=O)[C@H](Cc1ccc(O)cc1)NC(=O)[C@H](CO)NC(=O)[C@H](Cc1c[nH]c2ccccc12)NC(=O)[C@H](Cc1c[nH]cn1)NC(=O)[C@@H]1CCC(=O)N1 [GnRH, D-Leu^6, des-Gly-NH2^10] GnRH (1-9) NHEt]
PBMC proliferation [1]: increased proliferation
expression of HLA DR on T cells ([2]; whole blood from HIV-patients, 18 h incubation): increased in one of three HIV-patients
expression of HLA ABC on T cells ([2]; whole blood from healthy subjects or HIV-infected patients, 18 hours incubation, 50 U/mL IL-2, leuprolide acetate between 10^−1 and 10^−5 M, FIG. 6): upregulation of HLA ABC
expression of CD25 on T cells [2, 3]: only a slight increase
expression of CD69 on T cells [2, 3]: only a slight increase

— US20110129532A1, “METHOD AND MEANS FOR TREATING VIRAL DISEASE, IN PARTICULAR HIV/AIDS” (ISR Immune System Regulation AB, priority 2008, published 2011)
